Here are results for one compound from PMC5171807, “Five colour variants of bright luminescent protein for real-time multicolour bioimaging” (Nature Communications, 2016).

The experiment concerns the target T1, green eNL (GeNL) (Oplophorus gracilirostris, UniProt Q9GV45, A31E/Q38R/Q45L/L54V/A60N/K70R/V71I/A81I/F95D/L99Q/M102K/I117V/P142E/Q151K/Y165I/N193R).
T1 construct: single-chain fusion: C-terminally truncated mNeonGreen - two-residue linker - NanoLuc (N-terminal deletion 4); N-terminal His tag; E. coli; with mNeonGreen
Description: luminescence initial velocity (first […] s), Michaelis-Menten fit. The format is biochemical. To be noted: 10 pM enzyme; furimazine 0.025-13 μM.

T1 sequence (Q9GV45 30-196 with the stated changes): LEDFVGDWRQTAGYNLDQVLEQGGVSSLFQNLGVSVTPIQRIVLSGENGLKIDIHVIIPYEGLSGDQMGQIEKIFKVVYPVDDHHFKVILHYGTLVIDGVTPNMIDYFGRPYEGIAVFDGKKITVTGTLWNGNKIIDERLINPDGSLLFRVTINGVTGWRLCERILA

On to `O=c1c(Cc2ccco2)nc2c(Cc3ccccc3)[nH]c(-c3ccccc3)cn1-2` [furimazine], for which the Km result was “enzymatic parameters (Km and kcat) of the eNLs and Nluc”.
